Values of other authors as cited in US12708515B2, “Valved devices, treatments and methods to restore tissue elastic recoil” (priority 2021, dated 2026).

Columns and labels:
E. coli = settings: cysteine terminated peptide; second value of the pair
E. coli and E. faecalis = settings: physiologically relevant conditions

LasioglossinIII
anti-biofilm (E. coli): 40% (anti-biofilm) | antimicrobial activity of coated catheters (E. coli and E. faecalis): potent antimicrobial activity
